According to patent US11840533B2, “Pyridinone-based epigenetic modifiers and uses thereof” (THE BOARD OF TRUSTEES OF THE UNIVERSITY OF ILLINOIS, priority 2017, dated 2023):
pIC50: −log10 of the molar value.

Each molecule was assayed on fulvestrant-resistant MCF7:5C-FR cells (assay: Fulvestrant-resistant breast cancer cell viability (cell proliferation) assay). Settings: 120 h, growth inhibition in fulvestrant-resistant MCF-7:CFR cells, 120 hrs.
Assay type: cell-based
How it was run: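 Cells were treated the day after seeding with compounds at 3 nM to 10 uM for 120 h, with 0.1% DMSO vehicle and 1 uM JQ1 as positive control. Hoechst 33342-stained (5 μg/ml, 90 min, 37 C) nuclei were imaged and counted, and cell numbers normalized to vehicle.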

Compound | pIC50
Cn1cc(-c2cc(NS(=O)(=O)C3CC3)c3cnn(Cc4ccccc4)c3c2)c2ccnc(O)c21 [Compound 46, N-(1-benzyl-6-(7-hydroxy-1-methyl-1H-pyrrolo[2,3-c]pyridin-3-yl)-1H-indazol-4-yl)cyclopropanesulfonamide] | > 6.00
CC(=O)Nc1cc(-c2cn(C)c3c(=O)[nH]ccc23)cc2c1ccn2Cc1cccc(F)c1 [Compound 103, N-(1-(3-fluorobenzyl)-6-(1-methyl-7-oxo-6,7-dihydro-1H-pyrrolo[2,3-c]pyridin-3-yl)-1H-indol-4-yl)acetamide] | > 6.00
Cn1cc(-c2cc3c(NS(C)(=O)=O)cccc3n2[C@H](c2ccccc2)C2CCOCC2)c2ccnc(O)c21 [Compound 122, (S)-N-(2-(7-hydroxy-1-methyl-1H-pyrrolo[2,3-c]pyridin-3-yl)-1-(phenyl(tetrahydro-2H-pyran-4-yl)methyl)-1H-indol-4-yl)methanesulfonamide] | > 6.00
CCS(=O)(=O)Nc1cccc2c1nc(-c1cn(C)c3c(O)nccc13)n2Cc1ccccc1C(F)(F)F [Compound 62, N-(2-(7-hydroxy-1-methyl-1H-pyrrolo[2,3-c]pyridin-3-yl)-1-(2-(trifluoromethyl)benzyl)-1H-benzo[d]imidaol-4-yl)ethanesulfonamide] | < 7.00
CCS(=O)(=O)Nc1cc(-c2cn(C)c3c(O)nccc23)cc2c1cnn2C(C)(c1ccccn1)c1ccccn1 [Compound 63, N-(1-(1,1-di(pyridin-2-yl)ethyl)-6-(7-hydroxy-1-methyl-1H-pyrrolo[2,3-c]pyridin-3-yl)-1H-indazol-4-yl)ethanesulfonamide] | > 6.00
Cn1cc(C(OCC2CCC2)c2cccc(-c3ccc(F)cc3)c2)c2ccnc(O)c21 (stereo not shown) [Compound 11, 3-((cyclobutylmethoxy)(4′-fluoro-[1,1′-biphenyl]-3-yl)methyl)-1-methyl-1H-pyrrolo[2,3-c]pyridin-7-ol] | < 5.30
Cn1cc(-c2cc(NS(C)(=O)=O)cc3ccn(Cc4ccc(F)cc4)c23)c2ccnc(O)c21 [Compound 20, N-(1-(4-fluorobenzyl)-7-(7-hydroxy-1-methyl-1H-pyrrolo[2,3-c]pyridin-3-yl)-1H-indol-5-yl)methanesulfonamide] | 5.70
CCS(=O)(=O)Nc1cccc2c1nc(-c1cn(C)c3c(O)nccc13)n2Cc1ccccc1 [Compound 60, N-(1-benzyl-2-(7-hydroxy-1-methyl-1H-pyrrolo[2,3-c]pyridin-3-yl)-1H-benzo[d]imidazol-4-yl)ethanesulfonamide] | < 7.00
CCS(=O)(=O)c1cccc2c1cc(-c1cn(C)c3c(O)nccc13)n2[C@@H](c1ccccc1)C1CCOCC1 [Compound 121, (R)-3-(4-(ethylsulfonyl)-1-(phenyl(tetrahydro-2H-pyran-4-yl)methyl)-1H-indol-2-yl)-1-methyl-1H-pyrrolo[2,3-c]pyridin-7-ol] | > 6.00
Cn1cc(-c2cc3c(C(C)(C)O)cccc3n2[C@H](c2ccccc2)C2CCOCC2)c2ccnc(O)c21 [Compound 117, (S)-3-(4-(2-hydroxypropan-2-yl)-1-(phenyl(tetrahydro-2H-pyran-4-yl)methyl)-1H-indol-2-yl)-1-methyl-1H-pyrrolo[2,3-c]pyridin-7-ol] | > 6.00
O=C(c1cccc(-c2ccc(F)cc2)c1)c1cn(CCCl)c2c(O)nccc12 [Compound 7, (1-(2-chloroethyl)-7-hydroxy-1H-pyrrolo[2,3-c]pyridin-3-yl)(4′-fluoro-[1,1′-biphenyl]-3-yl)methanone] | 5.82
Cn1cc(-c2cc(NS(C)(=O)=O)c3ncn(Cc4ccc(F)cc4)c3c2)c2ccnc(O)c21 [Compound 38, N-(1-(4-fluorobenzyl)-6-(7-hydroxy-1-methyl-1H-pyrrolo[2,3-c]pyridin-3-yl)-1H-benzo[d]imidazol-4-yl)methanesulfonamide] | > 6.70
Cn1cc(C(=O)c2cccc(-c3ccc(F)cc3)c2)c2ccnc(O)c21 [Compound 2, (4′-fluoro-[1,1′-biphenyl]-3-yl)(7-hydroxy-1-methyl-1H-pyrrolo[2,3-c]pyridin-3-yl)methanone] | 6.80
Cc1cc(F)ccc1Cn1ccc2cc(NS(C)(=O)=O)cc(-c3cn(C)c4c(O)nccc34)c21 [Compound 21, N-(1-(4-fluoro-2-methylbenzyl)-7-(7-hydroxy-1-methyl-1H-pyrrolo[2,3-c]pyridin-3-yl)-1H-indol-5-yl)methanesulfonamide] | 5.46
Cn1cc(-c2cc(C(C)(C)O)c3ccn(CC4CC(F)(F)C4)c3c2)c2cc[nH]c(=O)c21 [Compound 106, 3-(1-((3,3-difluorocyclobutyl)methyl)-4-(2-hydroxypropan-2-yl)-1H-indol-6-yl)-1-methyl-1,6-dihydro-7H-pyrrolo[2,3-c]pyridin-7-one] | > 6.00
Cn1cc(C(Oc2ccc(F)cc2)c2cccc(-c3ccc(F)cc3)c2)c2ccnc(O)c21 (stereo not shown) [Compound 10, 3-((4′-fluoro-[1,1′-biphenyl]-3-yl)(4-fluorophenoxy)methyl)-1-methyl-1H-pyrrolo[2,3-c]pyridin-7-ol] | 6.52
CS(=O)(=O)Nc1cc(-c2cn(CC3CO3)c3c(O)nccc23)cc2c1ccn2Cc1ccc(F)cc1 (stereo not shown) [Compound 89, N-(1-(4-fluorobenzyl)-6-(7-hydroxy-1-(oxiran-2-ylmethyl)-1H-pyrrolo[2,3-c]pyridin-3-yl)-1H-indol-4-yl)methanesulfonamide] | > 6.00
CC(=O)Nc1cccc2c1cc(-c1cn(C)c3c(O)nccc13)n2[C@@H](c1ccccc1)C1CCOCC1 [Compound 118, (R)-N-(2-(7-hydroxy-1-methyl-1H-pyrrolo[2,3-c]pyridin-3-yl)-1-(phenyl(tetrahydro-2H-pyran-4-yl)methyl)-1H-indol-4-yl)acetamide] | > 6.00
CCS(=O)(=O)c1cccc2c1nc(-c1cn(C)c3c(O)nccc13)n2[C@H](c1ccccc1)C1CCOCC1 [Compound 115, (S)-3-(4-(ethylsulfonyl)-1-(phenyl(tetrahydro-2H-pyran-4-yl)methyl)-1H-benzo[d]imidazol-2-yl)-1-methyl-1H-pyrrolo[2,3-c]pyridin-7-ol] | > 6.00

The next lines start with the values.

pIC50 | Compound
> 6.00 | CCS(=O)(=O)Nc1cc(-c2cn(C)c3c(O)nccc23)cc2c1ccn2Cc1cccc2ccsc12 [Compound 53, N-(1-(benzo[b]thiophen-7-ylmethyl)-6-(7-hydroxy-1-methyl-1H-pyrrolo[2,3-c]pyridin-3-yl)-1H-indol-4-yl)ethanesulfonamide]
> 6.00 | CCS(=O)(=O)Nc1cc(-c2cn(C)c3c(O)nccc23)cc2c1ccn2Cc1c(C)cccc1C [Compound 28, N-(1-(2,6-dimethylbenzyl)-6-(7-hydroxy-1-methyl-1H-pyrrolo[2,3-c]pyridin-3-yl)-1H-indol-4-yl)ethanesulfonamide]
< 7.00 | CCS(=O)(=O)Nc1cc(-c2cn(CCCl)c3c(O)nccc23)cc2c1ccn2Cc1ccccc1 [Compound 95, N-(1-benzyl-6-(1-(2-chloroethyl)-7-hydroxy-1H-pyrrolo[2,3-c]pyridin-3-yl)-1H-indol-4-yl)ethanesulfonamide]
> 6.00 | CCS(=O)(=O)Nc1cc(-c2cn(CCCl)c3c(O)nccc23)cc2c1ccn2Cc1ccc(C#N)cc1 [Compound 86, N-(6-(1-(2-chloroethyl)-7-hydroxy-1H-pyrrolo[2,3-c]pyridin-3-yl)-1-(4-cyanobenzyl)-1H-indol-4-yl)ethanesulfonamide]
> 6.00 | CCS(=O)(=O)Nc1cc(-c2cn(C)c3c(O)nccc23)cc2c1ccn2Cc1cccc(F)c1F [Compound 48, N-(1-(2,3-difluorobenzyl)-6-(7-hydroxy-1-methyl-1H-pyrrolo[2,3-c]pyridin-3-yl)-1H-indol-4-yl)ethanesulfonamide]
> 6.00 | CCS(=O)(=O)Nc1cc(-c2cn(C)c3c(O)nccc23)cc2c1ccn2Cc1ccc(Cl)c(Cl)c1 [Compound 50, N-(1-(3,4-dichlorobenzyl)-6-(7-hydroxy-1-methyl-1H-pyrrolo[2,3-c]pyridin-3-yl)-1H-indol-4-yl)ethanesulfonamide]
> 6.30 | CCS(=O)(=O)Nc1cc(-c2cn(C)c3c(O)nccc23)cc2c1ccn2Cc1ccc(F)cc1F [Compound 29, N-(1-(2,4-difluorobenzyl)-6-(7-hydroxy-1-methyl-1H-pyrrolo[2,3-c]pyridin-3-yl)-1H-indol-4-yl)ethanesulfonamide]
> 6.30 | CCS(=O)(=O)Nc1cc(-c2cn(C)c3c(O)nccc23)cc2c1cnn2Cc1ccc(F)cc1F [Compound 34, N-(1-(2,4-difluorobenzyl)-6-(7-hydroxy-1-methyl-1H-pyrrolo[2,3-c]pyridin-3-yl)-1H-indazol-4-yl)ethanesulfonamide]
> 6.00 | CCS(=O)(=O)Nc1cc(-c2cn(C)c3c(O)nccc23)cc2c1ccn2[C@H](c1ccccc1)C1CCOCC1 [Compound 91, (S)-N-(6-(7-hydroxy-1-methyl-1H-pyrrolo[2,3-c]pyridin-3-yl)-1-(phenyl(tetrahydro-2H-pyran-4-yl)methyl)-1H-indol-4-yl)ethanesulfonamide]
> 6.00 | CCS(=O)(=O)Nc1cc(-c2cn(CCCl)c3c(O)nccc23)cc2c1ccn2Cc1ccc(Cl)c(Cl)c1 [Compound 87, N-(6-(1-(2-chloroethyl)-7-hydroxy-1H-pyrrolo[2,3-c]pyridin-3-yl)-1-(3,4-dichlorobenzyl)-1H-indol-4-yl)ethanesulfonamide]
> 6.00 | CCS(=O)(=O)Nc1cc(-c2cn(CCCl)c3c(O)nccc23)cc2c1ccn2Cc1ccc(F)cc1F [Compound 85, N-(6-(1-(2-chloroethyl)-7-hydroxy-1H-pyrrolo[2,3-c]pyridin-3-yl)-1-(2,4-difluorobenzyl)-1H-indol-4-yl)ethanesulfonamide]

Same assay, conditions: growth inhibition in fulvestrant-resistant MCF-7:CFR cells, 120 hrs

pIC50 | Compound
< 7.00 | CCS(=O)(=O)Nc1cc(-c2cn(CCCl)c3c(O)nccc23)cc2c1ccn2Cc1c(C)cccc1C [Compound 96, N-(6-(1-(2-chloroethyl)-7-hydroxy-1H-pyrrolo[2,3-c]pyridin-3-yl)-1-(2,6-dimethylbenzyl)-1H-indol-4-yl)ethanesulfonamide]
